In brackets after ≈: the same amount, converted by molar mass. Like-named read-outs stand apart in the source and are kept apart here.
Assays:
[1] = system: lung cancer cell H1299; assay: Anti-tumor activity in vitro, MTT method; type: cell-based; conditions: MTT, 48 h, read-out: H1299 (IC50/μM)
[2] = biological target: T1, Aurora A (Homo sapiens, UniProt O14965); assay: Inhibitory activity to Aurora A (FRET); type: biochemical; conditions: for inhibition at 1 µM: read-out: Aurora A inhibition % (1 × 10^−6 mol/L)
T1 construct: purchased
T1 sequence (O14965 1-403): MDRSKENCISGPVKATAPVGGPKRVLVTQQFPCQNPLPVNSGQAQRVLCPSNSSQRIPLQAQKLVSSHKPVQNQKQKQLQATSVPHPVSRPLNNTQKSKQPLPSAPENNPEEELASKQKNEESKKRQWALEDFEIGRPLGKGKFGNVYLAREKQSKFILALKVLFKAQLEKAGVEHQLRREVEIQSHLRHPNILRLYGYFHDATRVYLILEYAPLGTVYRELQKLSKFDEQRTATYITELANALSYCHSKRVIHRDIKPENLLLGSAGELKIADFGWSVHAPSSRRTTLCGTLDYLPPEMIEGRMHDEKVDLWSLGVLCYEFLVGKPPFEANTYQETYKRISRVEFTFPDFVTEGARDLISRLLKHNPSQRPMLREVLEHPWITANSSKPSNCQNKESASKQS
Procedure: The inhibitory activities of the synthesized compounds for Aurora A is determined by fluorescence resonance energy transfer (FRET) and were compared with the positive control drug so as to screen the compounds with better activities. Aurora A was purchased in the form of a kit or obtained through purification. Procedures: Aurora A is diluted to a suitable concentration with kinase diluent. The kinase reaction mixture contains Aurora A, peptide substrate, HEPES (pH7.5), BRIJ-35, MgCl2 and EDTA. Aurora A phospho-peptide substrate is used as the control of 100% phosphorylation and ATP-free as the control of 0% phosphorylation. After 1 h, the diluted Development Reagent A is added into the reaction system. Then the reaction is allowed to proceed for 1 h and then quenched with Stop Reagent. The excitation wavelength is 400 nm and the fluorescence intensity is detected at 445 nm (coumarin) and 520 nm (fluorescein). The inhibitions of the tested compounds are calculated according to the formula.

[3] = system: colon cancer cell line HCT116; assay: Anti-tumor activity in vitro, MTT method; type: cell-based; conditions: MTT, 48 h, first cell table, read-out: HCT-116 (IC50/μM)
[4] = system: liver cancer cell line 7721; assay: Anti-tumor activity in vitro, MTT method; type: cell-based; conditions: MTT, 48 h; read-out: 7721 (IC50/μM)
[5] = biological target: T2, CDK2/A (Homo sapiens, UniProt P24941); assay: Inhibitory activity to CDK2 (FRET); type: biochemical; conditions: for inhibition at 1 µM: read-out: CDK2 inhibition % (1 × 10^−6 mol/L)
T2 construct: purchased
Procedure: CDK2/A was purchased in the form of a kit or obtained through purification.
Procedures: CDK2/A is diluted to a suitable concentration with kinase diluent. The kinase reaction mixture contains CDK2/A, peptide substrate, HEPES (pH7.5), BRIJ-35, MgCl2 and EDTA. CDK2 phospho-peptide substrate is used as the control of 100% phosphorylation and ATP-free as the control of 0% phosphorylation. After 1 h, the diluted Development Reagent A is added into the reaction system. Then the reaction is allowed to proceed for 1 h and then quenched with Stop Reagent. […] The inhibitions of the tested compounds are calculated according to the formula.

[6] = system: Phytophthora infestans; type: in vivo; design: concentration or dose not given beside the values
[7] = system: Candida albicans - ATCC 36082; assay: Antifungal activity, modified broth microdilution; type: cell-based; conditions: 48 hours at 35, approximately 50% reduction of growth; for MIC: Candida albicans, ATCC36082
Procedure: (§1) The test microorganisms are maintained on Sabourahd Dextrose Agar slant at 4[…]. Singlet suspension of each microorganism is prepared by growing the yeast overnight at 27[…] on a rotating drum in yeast-nitrogen base broth (YNB) with amino acids (Difco, Detroit, Mich.), (pH 7.0) and 0.05 morpholine propanesulphonic acid (MOPS). […] The activity of the test compound is determined using a modified broth microdilution technique. […] Well 12 serves as a growth control. […] Inoculated plate is incubated for 48 hours at 35 °C. […] Minimal Cytolytic Concentration (MCC) is determined by subculturing all wells from the 96-well plate onto a Sabourahd Dextrose Agar (SDA) plate, incubating for 1-2 days at 35 °C, and then checking viability.

[8] = system: Candida tropicalis; assay: Antifungal activity, modified broth microdilution; type: cell-based; conditions: 48 hours at 35, approximately 50% reduction of growth; for MIC: Candida tropicalis
Procedure: as §1

[9] = system: Candida parapsilosis; assay: Antifungal activity, modified broth microdilution; type: cell-based; conditions: 48 hours at 35, approximately 50% reduction of growth; for MIC: Lodderomyces parapsilosis
Procedure: as §1

[10] = system: Cryptococcus neoformans; assay: Antifungal activity, modified broth microdilution; type: cell-based; conditions: 48 hours at 35, approximately 50% reduction of growth; for MIC: Cryptococcus neoformans
Procedure: as §1

## O=C(Nc1c[nH]nc1-c1nc2ccc(CN3CCOCC3)cc2[nH]1)NC1CC1 [AT-9283, reference compound]
[1]; Homo sapiens, NCI-H1299
  IC50: 10.8 µM
[2]
  inhibition at 1 µM: 77.4%
[3]; Homo sapiens, HCT-116
  IC50: 21.2 µM
[4]
  IC50: 61.2 µM
[5]
  inhibition at 1 µM: 39.7%

## CN1CCN(Cc2ccc(NC(=O)c3n[nH]cc3Nc3ncnc4ccsc34)cc2)CC1 [Compound I-9, 4-(4-thieno[3,2-d]pyrimidinylamino)-N-(4-((4-methyl-1-piperazinyl)methyl)phenyl)-1H-3-pyrazole carboxamide]
[2]
  inhibition at 1 µM: 67.6%
[6]; 0.0001 (unit not given)
  Severity of tomato leaf blight: ++ (15-40% blight)
[6]; 0.001 (unit not given)
  Severity of tomato leaf blight: ++ (15-40% blight)
[6]; 0.01 (unit not given)
  Severity of tomato leaf blight: −
[6]; 0.1 (unit not given)
  Severity of tomato leaf blight: −
[7]
  MIC: 12.7 µg/mL (≈ 28.4 µM)
[8]
  MIC: 10.7 µg/mL (≈ 23.9 µM)
[9]
  MIC: 8.7 µg/mL (≈ 19.4 µM)
[10]
  MIC: 15.6 µg/mL (≈ 34.7 µM)
[5]
  inhibition at 1 µM: 65%
other
  melting point: > 280 °C

## Cc1c[nH]c2ncnc(Nc3c[nH]nc3C(=O)Nc3ccc(CN4CCN(C)CC4)cc3)c12 [Compound I-15, 4-(4-(5-methyl-7H-pyrrolo[2,3-d]pyrimidinyl)amino)-N-(4-((4-methyl-1-piperazinyl)methyl)phenyl)-1H-3-pyrazolecarboxamide]
[2]
  Aurora A inhibition % (1 × 10^−6 mol/L): 57.43%
[6]; 0.0001 (unit not given)
  Severity of tomato leaf blight: ++ (15-40% blight)
[6]; 0.001 (unit not given)
  Severity of tomato leaf blight: ++ (15-40% blight)
[6]; 0.01 (unit not given)
  Severity of tomato leaf blight: + (0-15% blight)
[6]; 0.1 (unit not given)
  Severity of tomato leaf blight: −
[7]
  Candida albicans - ATCC 36082 MIC: 6.77 µg/mL
[8]
  Candida tropicalis MIC: 5.00 µg/mL
[9]
  Candida parapsilosis MIC: 5.78 µg/mL
[10]
  Cryptococcus neoformans MIC: 9.40 µg/mL
[5]
  CDK2 inhibition % (1 × 10^−6 mol/L): 73.16%

## Cc1c[nH]c2ncnc(Nc3c[nH]nc3C(=O)Nc3ccc(CN4CCOCC4)cc3)c12 [Compound I-16, 4-(4-(5-methyl-7H-pyrrolo[2,3-d]pyrimidinyl)amino)-N-(4-((4-morpholinyl)methyl)phenyl)-1H-3-pyrazolecarboxamide]
[1]
  IC50: 89 µM
[2]
  Aurora A inhibition % (1 × 10^−6 mol/L): 56.18%
[3]
  IC50: 32.3 µM
[4]
  IC50: 54.2 µM
[5]
  CDK2 inhibition % (1 × 10^−6 mol/L): 50.49%

## CN1CCN(Cc2ccc(NC(=O)c3n[nH]cc3Nc3ncnc4cc[nH]c34)cc2)CC1 [Compound I-17, 4-(4-(5H-pyrrolo[3,2-d]pyrimidinyl)amino)-N-(4-((4-methyl-1-piperazinyl)methyl)phenyl)-1H-3-pyrazolecarboxamide]
[2]
  Aurora A inhibition % (1 × 10^−6 mol/L): 62.17%
[6]; 0.0001 (unit not given)
  Severity of tomato leaf blight: +++ (40-60% blight)
[6]; 0.001 (unit not given)
  Severity of tomato leaf blight: ++ (15-40% blight)
[6]; 0.01 (unit not given)
  Severity of tomato leaf blight: + (0-15% blight)
[6]; 0.1 (unit not given)
  Severity of tomato leaf blight: −
[7]
  Candida albicans - ATCC 36082 MIC: 9.49 µg/mL
[8]
  Candida tropicalis MIC: 4.70 µg/mL
[9]
  Candida parapsilosis MIC: 2.76 µg/mL
[10]
  Cryptococcus neoformans MIC: 7.99 µg/mL
[5]
  CDK2 inhibition % (1 × 10^−6 mol/L): 65.96%

## Cc1cc2ncnc(Nc3c[nH]nc3C(=O)Nc3ccc(CN4CCN(C)CC4)cc3)c2[nH]1 [Compound I-19, 4-(4-(6-methyl-5H-pyrrolo[3,2-d]pyrimidinyl)amino)-N-(4-((4-methyl-1-piperazinyl)methyl)phenyl)-1H-3-pyrazolecarboxamide]
[2]
  Aurora A inhibition % (1 × 10^−6 mol/L): 70.28%
[6]; 0.0001 (unit not given)
  Severity of tomato leaf blight: ++++ (>60% blight)
[6]; 0.001 (unit not given)
  Severity of tomato leaf blight: ++ (15-40% blight)
[6]; 0.01 (unit not given)
  Severity of tomato leaf blight: + (0-15% blight)
[6]; 0.1 (unit not given)
  Severity of tomato leaf blight: −
[7]
  Candida albicans - ATCC 36082 MIC: 11.80 µg/mL
[8]
  Candida tropicalis MIC: 8.58 µg/mL
[9]
  Candida parapsilosis MIC: 6.45 µg/mL
[10]
  Cryptococcus neoformans MIC: 12.86 µg/mL
[5]
  CDK2 inhibition % (1 × 10^−6 mol/L): 65.01%

## O=C(Nc1ccc(CN2CCOCC2)cc1)c1n[nH]cc1Nc1ncnc2occc12 [Compound I-22, 4-(4-furo[2,3-d]pyrimidinylamino)-N-(4-((4-morpholinyl)methyl)phenyl)-1H-3-pyrazolecarboxamide]
[1]; Homo sapiens, NCI-H1299
  IC50: 10.3 µM
[2]
  inhibition at 1 µM: 48.5%
[3]; Homo sapiens, HCT-116
  IC50: 8.63 µM
[4]
  IC50: 18.1 µM
[5]
  inhibition at 1 µM: 66.3%
other
  melting point: > 280 °C

## CN1CCN(Cc2ccc(NC(=O)c3n[nH]cc3Nc3ncnc4ccoc34)cc2)CC1 [Compound I-23, 4-(4-furo[3,2-d]pyrimidinylamino)-N-(4-((4-methyl-1-piperazinyl)methyl)phenyl)-1H-3-pyrazolecarboxamide]
[2]
  inhibition at 1 µM: 59.7%
[6]; 0.0001 (unit not given)
  Severity of tomato leaf blight: +++ (40-60% blight)
[6]; 0.001 (unit not given)
  Severity of tomato leaf blight: ++ (15-40% blight)
[6]; 0.01 (unit not given)
  Severity of tomato leaf blight: −
[6]; 0.1 (unit not given)
  Severity of tomato leaf blight: −
[7]
  MIC: 2.92 µg/mL (≈ 6.75 µM)
[8]
  MIC: 3.24 µg/mL (≈ 7.49 µM)
[9]
  MIC: 4.32 µg/mL (≈ 9.99 µM)
[10]
  MIC: 5.82 µg/mL (≈ 13.5 µM)
[5]
  inhibition at 1 µM: 60.6%
other
  melting point: 277 to 279 °C

## CN1CCN(Cc2ccc(NC(=O)c3n[nH]cc3Nc3nccc4sccc34)cc2)CC1 [Compound I-25, 4-(4-thieno[3,2-c]pyridylamino)-N-(4-((4-methyl-1-piperazinyl)methyl)phenyl)-1H-3-pyrazolecarboxamide]
[2]
  inhibition at 1 µM: 59.7%
[6]; 0.0001 (unit not given)
  Severity of tomato leaf blight: ++ (15-40% blight)
[6]; 0.001 (unit not given)
  Severity of tomato leaf blight: ++ (15-40% blight)
[6]; 0.01 (unit not given)
  Severity of tomato leaf blight: + (0-15% blight)
[6]; 0.1 (unit not given)
  Severity of tomato leaf blight: −
[7]
  MIC: 3.38 µg/mL (≈ 7.55 µM)
[8]
  MIC: 1.08 µg/mL (≈ 2.41 µM)
[9]
  MIC: 0.96 µg/mL (≈ 2.14 µM)
[10]
  MIC: 2.83 µg/mL (≈ 6.32 µM)
[5]
  inhibition at 1 µM: 59.5%
other
  melting point: 268 to 270 °C

## CN1CCN(Cc2ccc(NC(=O)c3n[nH]cc3Nc3ccnc4ccoc34)cc2)CC1 [Compound I-39, 4-(7-furo[3,2-b]pyridylamino)-N-(4-((4-methyl-1-piperazinyl)methyl)phenyl)-1H-3-pyrazolecarboxamide]
[1]; Homo sapiens, NCI-H1299
  IC50: > 200 µM
[2]
  inhibition at 1 µM: 42.1%
[3]; Homo sapiens, HCT-116
  IC50: > 200 µM
[4]
  IC50: > 200 µM
[5]
  inhibition at 1 µM: 37.6%
other
  melting point: 268 to 270 °C

Reference: US9550792B2, “Polycyclic substituted pyrazole kinase activity inhibitors and use thereof” (priority 2013, dated 2017)
